Test results: patent publication US20240024273A1, “TOPICAL ADMINISTRATION OF 2-(DIETHYLAMINO)ETHYL 2-(4-ISOBUTYLPHENYL)PROPRIONATE FOR TREATMENT OF DISEASES” (TECHFIELDS PHARMA CO., LTD., priority 2020, published 2024)

System: Mild to Moderate Osteoarthritis of the Knee
Assay: Phase 2 study: WOMAC (VAS) pain subscale score, target knee
Format: in vivo, human
Conditions: for WOMAC Pain Subscale Score, Avg.: Avg. of all patients; for WOMAC Pain Subscale Score, Avg. / WOMAC Pain Subscale Score: blinded, High Dose (8 spray/knee, 35 mg/knee) Cohort; for WOMAC Pain Subscale Score, cohort Avg.: low dose cohort 8.75 mg/knee BID, blinded (active + placebo), Day 1 Avg. 59.8; for difference of LS mean (8.75 mg-control), change from baseline in WOMAC pain subscale score / Change from baseline in WOMAC pain subscale score, LS mean (95% ci): Group A, 8.75 mg/knee; for difference of LS mean (8.75 mg-control), change from baseline in WOMAC pain subscale score / difference of LS mean (testing Drug-control), change from baseline in WOMAC pain subscale score: bid vs placebo; for Change from baseline in WOMAC pain subscale score, LS mean (95% ci) / Change from baseline in WOMAC pain subscale score, LS mean: bid; for difference of LS mean (testing Drug-control), change from baseline in WOMAC pain subscale score / Change from baseline in WOMAC pain subscale score, LS mean: Group C, 35 mg/knee; for WOMAC Pain Subscale Score: individual patient
Text: This is a Phase 2, multicenter, randomized, double blind (within dose), placebo controlled, parallel group, proof of concept, and dose range finding study to evaluate the efficacy, safety, and PK of 2-(diethylamino)ethyl 2-(4-isobutylphenyl)propionate hydrochloride spray in adult subjects with clinically symptomatic mild to moderate OA of the knee. For subjects with bilateral knee pain, both knees will be treated, but the most symptomatic knee (i.e., the most painful knee as measured by the Western Ontario and McMaster University Osteoarthritis Index [WOMAC® 3.1] pain subscale score at Screening) will be designated as the target knee for efficacy analyses. For subjects with unilateral knee pain, only the symptomatic (target) knee will be treated.
After a Screening Period of up to 3 weeks and radiographic evaluation of the target knee joint space, a subject will be randomly assigned to 1 of 3 treatment groups in a 1:1:1 ratio with a 2:1 ratio of active:placebo within each treatment group (ie, 2 subjects to active treatment and 1 subject to placebo): • Group A: 8.75 mg 2-(diethylamino)ethyl 2-(4-isobutylphenyl)propionate/knee (2 sprays/knee, one spray to the medial surface and one spray to the lateral surface of the knee), twice daily (BID, approximately every 12 hours; n=50) or placebo (2 sprays/knee), BID (approximately every 12 hours; n=25) for a total of 4 sprays per knee per day; • Group B: 17.5 mg 2-(diethylamino)ethyl 2-(4-isobutylphenyl)propionate/knee (4 sprays/knee, one spray to the medial surface and one spray to the lateral surface of the knee, and one spray to front and one spray to the back of the knee), BID (approximately every 12 hours; n=50) or placebo (4 sprays/knee), BID (approximately every 12 hours; n=25) for a total of 8 sprays per knee per day; • Group C: 35 mg 2-(diethylamino)ethyl 2-(4-isobutylphenyl)propionate/knee (8 sprays/knee, each spray is to be applied to a different non-overlapping area around the knee, and the areas are to be uniformly distributed around the knee), BID (approximately every 12 hours; n=50) or placebo (8 sprays/knee), BID (approximately every 12 hours; n=25) for a total of 16 sprays per knee per day.
The VAS version of the WOMAC will be used for the Primary and Secondary Efficacy Endpoints. Efficacy endpoints will be assessed at Screening and Baseline (Day 1) and at the Week 2, Week 4, Week 8, and Week 12/EOS visits.
The Primary Efficacy Endpoint is the change from Baseline in the WOMAC (VAS) pain subscale score for the target knee at […] of treatment.
3.9.2. Secondary Efficacy Endpoints: • 1. Change from Baseline in the WOMAC (VAS) pain subscale score for the target knee at 2, 4, and 8 weeks of treatment; • 2. Change from Baseline in the WOMAC (VAS) stiffness subscale scores for the target knee and WOMAC (VAS) functional ability subscale scores at 2, 4, 8, and 12 weeks of treatment; • 3. Change from Baseline in the overall WOMAC (VAS) score at 2, 4, 8, and 12 weeks of treatment.
The Primary Efficacy Endpoint is change from Baseline in the WOMAC (VAS) pain subscale score for the target knee at 4 weeks of treatment, and will be analyzed using an analysis of covariance (ANCOVA). Treatment will be included as a fixed class effect and WOMAC Baseline pain subscale score as covariates. The primary comparisons of interest will be the difference between active Group A (8.75 mg 2-(diethylamino)ethyl 2-(4-isobutylphenyl)propionate/knee) and combined placebo, active Group B (17.5 mg 2-(diethylamino)ethyl 2-(4-isobutylphenyl)propionate/knee) and combined placebo, and active Group C (35 mg 2-(diethylamino)ethyl 2-(4-isobutylphenyl)propionate/knee) and combined placebo. […]

Q: `CCN(CC)CCOC(=O)C(C)c1ccc(CC(C)C)cc1` (stereo not drawn) [2-(diethylamino)ethyl 2-(4-isobutylphenyl)propionate] was tested. Which “reduction of pain WOMAC from baseline to week 12” value (5 patients on second batch active drug kits) did it give?
A: Its value is 81-98%.

Q: And the “WOMAC Pain Subscale Score, Avg.” value (Day 1)?
A: Its value is 59.2.

Q: What about the “WOMAC Pain Subscale Score, Avg.” value (Follow-up) of the same molecule?
A: Its value is 35.2.

Q: What about the “WOMAC Pain Subscale Score, Avg.” value (Week 2) of the same molecule?
A: Its value is 46.6.

Q: What about the “WOMAC Pain Subscale Score, Avg.” value (Week 4) of the same molecule?
A: Its value is 41.5.

Q: What about the “WOMAC Pain Subscale Score, Avg.” value (Week 8) of the same molecule?
A: The value was 37.0.

Q: And the “WOMAC Pain Subscale Score, Avg.” value (Week 12)?
A: The value was 33.8.

Q: What about the “WOMAC Pain Subscale Score, cohort Avg.” value (Follow-up) of the same molecule?
A: The value was 39.7.

Q: What about the “difference of LS mean (8.75 mg-control), change from baseline in WOMAC pain subscale score” value (Week 2) of the same molecule?
A: The value was 6.7 mm.

Q: What about the “difference of LS mean (8.75 mg-control), change from baseline in WOMAC pain subscale score” value (Week 4) of the same molecule?
A: The value was 10.5 mm.

Q: What about the “difference of LS mean (8.75 mg-control), change from baseline in WOMAC pain subscale score” value (Week 8) of the same molecule?
A: The value was 7.9 mm.

Q: And the “difference of LS mean (8.75 mg-control), change from baseline in WOMAC pain subscale score” value (Week 12/EOS)?
A: Its value is 8.6 mm.

Q: What about the “Change from baseline in WOMAC pain subscale score, LS mean (95% ci)” value (“Change from baseline … (95% ci)” below) (Week 2) of the same molecule?
A: The value was −7.5 (−13.3, −1.7) mm.

Q: What about the “Change from baseline … (95% ci)” value (Week 4) of the same molecule?
A: The value was −10.6 (−17.1, −4.1) mm.

Q: And the “Change from baseline … (95% ci)” value (Week 8)?
A: The value was −15.7 (−22.5, −8.8) mm.

Q: What about the “Change from baseline … (95% ci)” value (Week 12/EOS) of the same molecule?
A: Its value is −16.1 (−23.6, −8.6) mm.

Q: And the “difference of LS mean (testing Drug-control), change from baseline in WOMAC pain subscale score” value (Week 2)?
A: Its value is −11.5 mm.

Q: What about the “difference of LS mean (testing Drug-control), change from baseline in WOMAC pain subscale score” value (Week 4) of the same molecule?
A: Its value is −12.8 mm.

Q: And the “difference of LS mean (testing Drug-control), change from baseline in WOMAC pain subscale score” value (Week 8)?
A: The value was −6.0 mm.

Q: And the “difference of LS mean (testing Drug-control), change from baseline in WOMAC pain subscale score” value (Week 12/EOS)?
A: The value was −4.1 mm.

Q: What about the “Change from baseline in WOMAC pain subscale score, LS mean” value (Week 2) of the same molecule?
A: The value was −15.6 mm.

Q: What about the “Change from baseline in WOMAC pain subscale score, LS mean” value (Week 4) of the same molecule?
A: Its value is −21.2 mm.

Q: And the “Change from baseline in WOMAC pain subscale score, LS mean” value (Week 8)?
A: Its value is −24.0 mm.

Q: What about the “Change from baseline in WOMAC pain subscale score, LS mean” value (Week 12/EOS) of the same molecule?
A: Its value is −26.9 mm.

Q: What about the “WOMAC Pain Subscale, WOMAC VAS Score” value (Patient 1056, second batch active drug kits, Day 1) of the same molecule?
A: Its value is 51.8 mm.

Q: What about the “WOMAC Pain Subscale, WOMAC VAS Score” value (Patient 1056, second batch active drug kits, Follow Up) of the same molecule?
A: The value was 10.0 mm.

Q: And the “WOMAC Pain Subscale, WOMAC VAS Score” value (Patient 1056, second batch active drug kits, Week 2)?
A: The value was 31.0 mm.

Q: And the “WOMAC Pain Subscale, WOMAC VAS Score” value (Patient 1056, second batch active drug kits, Week 4)?
A: The value was 22.6 mm.

Q: And the “WOMAC Pain Subscale, WOMAC VAS Score” value (Patient 1056, second batch active drug kits, Week 8)?
A: The value was 28.0 mm.

Q: What about the “WOMAC Pain Subscale, WOMAC VAS Score” value (Patient 1056, second batch active drug kits, Week 12) of the same molecule?
A: Its value is 12.0 mm.

Q: And the “WOMAC Pain Subscale, WOMAC VAS Score” value (Patient 1064, second batch active drug kits, Day 1)?
A: Its value is 32.6 mm.

Q: And the “WOMAC Pain Subscale, WOMAC VAS Score” value (Patient 1064, second batch active drug kits, Follow Up)?
A: Its value is 1.6 mm.

Q: And the “WOMAC Pain Subscale, WOMAC VAS Score” value (Patient 1064, second batch active drug kits, Week 2)?
A: The value was 21.6 mm.

Q: And the “WOMAC Pain Subscale, WOMAC VAS Score” value (Patient 1064, second batch active drug kits, Week 4)?
A: The value was 1.8 mm.

Q: What about the “WOMAC Pain Subscale, WOMAC VAS Score” value (Patient 1064, second batch active drug kits, Week 8) of the same molecule?
A: The value was 1.0 mm.

Q: What about the “WOMAC Pain Subscale, WOMAC VAS Score” value (Patient 1064, second batch active drug kits, Week 12) of the same molecule?
A: Its value is 0 mm.

Q: What about the “WOMAC Pain Subscale, WOMAC VAS Score” value (Patient 1535, second batch active drug kits, Day 1) of the same molecule?
A: The value was 40.4 mm.

Q: And the “WOMAC Pain Subscale, WOMAC VAS Score” value (Patient 1535, second batch active drug kits, Follow Up)?
A: Its value is 0.0 mm.

Q: What about the “WOMAC Pain Subscale, WOMAC VAS Score” value (Patient 1535, second batch active drug kits, Week 2) of the same molecule?
A: The value was 2.8 mm.

Q: And the “WOMAC Pain Subscale, WOMAC VAS Score” value (Patient 1535, second batch active drug kits, Week 4)?
A: The value was 2.6 mm.

Q: And the “WOMAC Pain Subscale, WOMAC VAS Score” value (Patient 1535, second batch active drug kits, Week 8)?
A: The value was 4.0 mm.

Q: And the “WOMAC Pain Subscale, WOMAC VAS Score” value (Patient 1535, second batch active drug kits, Week 12)?
A: Its value is 0.6 mm.

Q: What about the “WOMAC Pain Subscale, WOMAC VAS Score” value (Patient 1539, second batch active drug kits, Day 1) of the same molecule?
A: Its value is 63.0 mm.

Q: And the “WOMAC Pain Subscale, WOMAC VAS Score” value (Patient 1539, second batch active drug kits, Follow Up)?
A: The value was 5.0 mm.

Q: And the “WOMAC Pain Subscale, WOMAC VAS Score” value (Patient 1539, second batch active drug kits, Week 2)?
A: Its value is 47.6 mm.

Q: And the “WOMAC Pain Subscale, WOMAC VAS Score” value (Patient 1539, second batch active drug kits, Week 4)?
A: Its value is 48.2 mm.

Q: What about the “WOMAC Pain Subscale, WOMAC VAS Score” value (Patient 1539, second batch active drug kits, Week 8) of the same molecule?
A: The value was 1.8 mm.

Q: What about the “WOMAC Pain Subscale, WOMAC VAS Score” value (Patient 1539, second batch active drug kits, Week 12) of the same molecule?
A: Its value is 9.4 mm.

Q: What about the “WOMAC Pain Subscale, WOMAC VAS Score” value (Patient 9032, second batch active drug kits, Day 1) of the same molecule?
A: Its value is 16.6 mm.

Q: What about the “WOMAC Pain Subscale, WOMAC VAS Score” value (Patient 9032, second batch active drug kits, Follow Up) of the same molecule?
A: The value was 3.0 mm.

Q: And the “WOMAC Pain Subscale, WOMAC VAS Score” value (Patient 9032, second batch active drug kits, Week 2)?
A: Its value is 11.2 mm.

Q: What about the “WOMAC Pain Subscale, WOMAC VAS Score” value (Patient 9032, second batch active drug kits, Week 4) of the same molecule?
A: The value was 6.2 mm.

Q: What about the “WOMAC Pain Subscale, WOMAC VAS Score” value (Patient 9032, second batch active drug kits, Week 8) of the same molecule?
A: Its value is 4.4 mm.

Q: And the “WOMAC Pain Subscale, WOMAC VAS Score” value (Patient 9032, second batch active drug kits, Week 12)?
A: The value was 3.2 mm.

Q: And the “WOMAC Pain Subscale Score, cohort Avg.” value (Week 2)?
A: The value was 48.6.

Q: What about the “WOMAC Pain Subscale Score, cohort Avg.” value (Week 4) of the same molecule?
A: Its value is 42.8.

Q: What about the “WOMAC Pain Subscale Score, cohort Avg.” value (Week 8) of the same molecule?
A: Its value is 38.4.

Q: And the “WOMAC Pain Subscale Score, cohort Avg.” value (Week 12)?
A: The value was 38.2.

Q: What about the “WOMAC Pain Subscale Score” value (Day 1) of the same molecule?
A: The value was 59.4.

Q: What about the “WOMAC Pain Subscale Score” value (Follow-up) of the same molecule?
A: Its value is 67.0.
